# Test results published in patent US6977262B2, “Dihydropyrazolopyridine compounds and pharmaceutical use thereof” (Mitsubishi Pharma Corporation, priority 2001, dated 2005).
row,Structure (SMILES),melting point [°C]
1,"CCCC1=C(C(=O)OCC)C(c2ccnc3ccccc23)c2c[nH]nc2N1 (stereo not shown) [Example 74, Ethyl 4,7-dihydro-6-propyl-4-(quinolin-4-yl)-2H-pyrazolo[3,4-b]pyridine-5-carboxylate]",198
2,"CCCC1=C(C(=O)OCC)C(c2csc3ccccc23)c2c[nH]nc2N1 (stereo not shown) [Example 75, Ethyl 4-(benzo[b]thiophen-3-yl)-4,7-dihydro-6-propyl-2H-pyrazolo[3,4-b]pyridine-5-carboxylate]",222
3,"CCCC1=C(C(=O)OCC)C(c2cccc3nonc23)c2c[nH]nc2N1 (stereo not shown) [Example 76, Ethyl 4-(2,1,3-benzoxadiazol-4-yl)-4,7-dihydro-6-propyl-2H-pyrazolo[3,4-b]pyridine-5-carboxylate]",207
4,"CCCC1=C(C(=O)OCC)C(c2ccc3c(c2)OCCO3)c2c[nH]nc2N1.O=C(O)/C=C\C(=O)O (stereo not shown) [Example 80, Ethyl 4-(2,3-dihydro-1,4-benzodioxin-6-yl)-4,7-dihydro-6-propyl-2H-pyrazolo[3,4-b]pyridine-5-carboxylate maleate]",147 to 149
5,"CCCC1=C(C(=O)OCC)C(c2cc3ccccc3o2)c2c[nH]nc2N1.O=C(O)/C=C\C(=O)O (stereo not shown) [Example 81, Ethyl 4-(benzo[b]furan-2-yl)-4,7-dihydro-6-propyl-2H-pyrazolo[3,4-b]pyridine-5-carboxylate maleate]",123 to 125
6,"CCOC(=O)C1=C(CC)Nc2n[nH]cc2C1c1ccccc1Cl (stereo not shown) [Example 82, Ethyl 4-(2-chlorophenyl)-6-ethyl-4,7-dihydro-2H-pyrazolo[3,4-b]pyridine-5-carboxylate]",213
7,"CCCCC1=C(C(=O)OCC)C(c2ccccc2Cl)c2c[nH]nc2N1 (stereo not shown) [Example 83, Ethyl 6-butyl-4-(2-chlorophenyl)-4,7-dihydro-2H-pyrazolo[3,4-b]pyridine-5-carboxylate]",209
8,"COCC1=C(C(=O)OC)C(c2ccccc2Cl)c2c[nH]nc2N1 (stereo not shown) [Example 84, Methyl 4-(2-chlorophenyl)-4,7-dihydro-6-methoxymethyl-2H-pyrazolo[3,4-b]pyridine-5-carboxylate]",160
9,"CCOC(=O)C1=C(c2ccccc2)Nc2n[nH]cc2C1c1ccccc1Cl (stereo not shown) [Example 85, Ethyl 4-(2-chlorophenyl)-4,7-dihydro-6-phenyl-2H-pyrazolo[3,4-b]pyridine-5-carboxylate]",214
10,"CCOC(=O)C1=C(c2ccc(OC)cc2)Nc2n[nH]cc2C1c1ccccc1Cl (stereo not shown) [Example 86, Ethyl 4-(2-chlorophenyl)-4,7-dihydro-6-(4-methoxyphenyl)-2H-pyrazolo[3,4-b]pyridine-5-carboxylate]",211
11,"CCOC(=O)C1=C(c2cccs2)Nc2n[nH]cc2C1c1ccccc1Cl (stereo not shown) [Example 87, Ethyl 4-(2-chlorophenyl)-4,7-dihydro-6-(thiophen-2-yl)-2H-pyrazolo[3,4-b]pyridine-5-carboxylate]",200
12,"CCOC(=O)C1=C(Cc2ccccc2)Nc2n[nH]cc2C1c1ccccc1Cl (stereo not shown) [Example 88, Ethyl 6-benzyl-4-(2-chlorophenyl)-4,7-dihydro-2H-pyrazolo[3,4-b]pyridine-5-carboxylate]",247
13,"CCOC(=O)C1=C(CC)Nc2n[nH]cc2C1c1ccccc1OC (stereo not shown) [Example 89, Ethyl 6-ethyl-4,7-dihydro-4-(2-methoxyphenyl)-2H-pyrazolo[3,4-b]pyridine-5-carboxylate]",169
14,"CCCCC1=C(C(=O)OCC)C(c2ccccc2OC)c2c[nH]nc2N1 (stereo not shown) [Example 90, Ethyl 6-butyl-4,7-dihydro-4-(2-methoxyphenyl)-2H-pyrazolo[3,4-b]pyridine-5-carboxylate]",190
15,"COCC1=C(C(=O)OC)C(c2ccccc2OC)c2c[nH]nc2N1 (stereo not shown) [Example 91, Methyl 4,7-dihydro-6-methoxymethyl-4-(2-methoxyphenyl)-2H-pyrazolo[3,4-b]pyridine-5-carboxylate]",186
16,"CCOC(=O)C1=C(c2ccccc2)Nc2n[nH]cc2C1c1ccccc1OC (stereo not shown) [Example 92, Ethyl 4,7-dihydro-4-(2-methoxyphenyl)-6-phenyl-2H-pyrazolo[3,4-b]pyridine-5-carboxylate]",195
17,"CCCC1=C([N+](=O)[O-])C(c2ccccc2Cl)c2c[nH]nc2N1 (stereo not shown) [Example 93, 4-(2-Chlorophenyl)-4,7-dihydro-5-nitro-6-propyl-2H-pyrazolo[3,4-b]pyridine]",228
18,"CCCC1=C(C#N)C(c2ccccc2Cl)c2c[nH]nc2N1 (stereo not shown) [Example 94, 4-(2-Chlorophenyl)-5-cyano-4,7-dihydro-6-propyl-2H-pyrazolo[3,4-b]pyridine]",248
19,"COc1ccc(C2=C(C#N)C(c3ccccc3Cl)c3c[nH]nc3N2)cc1 (stereo not shown) [Example 95, 4-(2-Chlorophenyl)-5-cyano-4,7-dihydro-6-(4-methoxyphenyl)-2H-pyrazolo[3,4-b]pyridine]",124
20,"O=C1OCC2=C1C(c1ccccc1Cl)c1c[nH]nc1N2 (stereo not shown) [Example 96, 4-(2-Chlorophenyl)-2,4,7,8-tetrahydrofurano[3,4-b]pyrazolo[4,3-e]pyridin-5-one]",> 270

row,Structure (SMILES),melting point [°C]
1,"CCCC1=C(C(=O)OCC)C(c2ccccc2O)c2c[nH]nc2N1 (stereo not shown) [Example 98, Ethyl 4,7-dihydro-4-(2-hydroxyphenyl)-6-propyl-2H-pyrazolo[3,4-b]pyridine-5-carboxylate]",177
2,"CCCC1=C(C(=O)OCC)C(c2ccccc2N)c2c[nH]nc2N1 (stereo not shown) [Example 99, Ethyl 4-(2-aminophenyl)-4,7-dihydro-6-propyl-2H-pyrazolo[3,4-b]pyridine-5-carboxylate]",179
3,"CCCC1=C(C(=O)OCC)C(c2ccccc2CC)c2cn[nH]c2N1 (stereo not shown) [Example 100, Ethyl 4-(2-ethylphenyl)-4,7-dihydro-6-propyl-1H-pyrazolo[3,4-b]pyridine-5-carboxylate]",186
4,"CCCC1=C(C(=O)OCC)C(c2ccccc2CCC)c2cn[nH]c2N1 (stereo not shown) [Example 101, Ethyl 4,7-dihydro-6-propyl-4-(2-propylphenyl)-1H-pyrazolo[3,4-b]pyridine-5-carboxylate]",197
5,"CCCCc1ccccc1C1C(C(=O)OCC)=C(CCC)Nc2[nH]ncc21 (stereo not shown) [Example 102, Ethyl 4-(2-butylphenyl)-4,7-dihydro-6-propyl-1H-pyrazolo[3,4-b]pyridine-5-carboxylate]",175
6,"CCCC1=C(C(=O)OCC)C(c2cccc3c2CCC3)c2c[nH]nc2N1 (stereo not shown) [Example 103, Ethyl 4,7-dihydro-4-(indan-4-yl)-6-propyl-2H-pyrazolo[3,4-b]pyridine-5-carboxylate]",181 to 183
7,"CCCC1=C(C(=O)OCC)C(c2cccc3ccsc23)c2c[nH]nc2N1 (stereo not shown) [Example 106, Ethyl 4-(benzo[b]thiophen-7-yl)-4,7-dihydro-6-propyl-2H-pyrazolo[3,4-b]pyridine-5-carboxylate]",166
8,"CCCC1=C(C(=O)OCC)C(C)(c2ccccc2)c2c[nH]nc2N1 (stereo not shown) [Example 108, Ethyl 4,7-dihydro-4-methyl-4-phenyl-6-propyl-2H-pyrazolo[3,4-b]pyridine-5-carboxylate]",207
9,"CCCC1=C(C(=O)OCC)C(c2cccc(Cl)c2C)c2c[nH]nc2N1 (stereo not shown) [Example 111, Ethyl 4-(3-chloro-2-methylphenyl)-4,7-dihydro-6-propyl-2H-pyrazolo[3,4-b]pyridine-5-carboxylate]",185
10,"CCCC1=C(C(=O)OCC)C(c2cccc3nsnc23)c2c[nH]nc2N1 (stereo not shown) [Example 112, Ethyl 4-(2,1,3-benzothiadiazol-4-yl)-4,7-dihydro-6-propyl-2H-pyrazolo[3,4-b]pyridine-5-carboxylate]",180
11,"CCOC(=O)C1=C(C)Nc2n[nH]cc2C1c1cccc2nonc12 (stereo not shown) [Example 113, Ethyl 4-(2,1,3-benzoxadiazol-4-yl)-4,7-dihydro-6-methyl-2H-pyrazolo[3,4-b]pyridine-5-carboxylate]",228
12,"CCOC(=O)C1=C(c2ccccc2)Nc2n[nH]cc2C1c1cccc2nonc12 (stereo not shown) [Example 114, Ethyl 4-(2,1,3-benzoxadiazol-4-yl)-4,7-dihydro-6-phenyl-2H-pyrazolo[3,4-b]pyridine-5-carboxylate]",190
13,"CCCC1=C([N+](=O)[O-])C(c2ccccc2Br)c2c[nH]nc2N1 (stereo not shown) [Example 118, 4-(2-Bromophenyl)-4,7-dihydro-5-nitro-6-propyl-2H-pyrazolo[3,4-b]pyridine]",226
14,"CCCC1=C([N+](=O)[O-])C(c2ccccc2OC)c2c[nH]nc2N1 (stereo not shown) [Example 119, 4,7-Dihydro-4-(2-methoxyphenyl)-5-nitro-6-propyl-2H-pyrazolo[3,4-b]pyridine]",223
15,"CCCC1=C([N+](=O)[O-])C(c2ccccc2SC)c2c[nH]nc2N1 (stereo not shown) [Example 120, 4,7-Dihydro-4-(2-methylthiophenyl)-5-nitro-6-propyl-2H-pyrazolo[3,4-b]pyridine]",211
16,"CCCC1=C([N+](=O)[O-])C(c2cccc(Cl)c2Cl)c2c[nH]nc2N1 (stereo not shown) [Example 122, 4-(2,3-Dichlorophenyl)-4,7-dihydro-5-nitro-6-propyl-2H-pyrazolo[3,4-b]pyridine]",239
17,"CCCC1=C([N+](=O)[O-])C(c2cccc3ccccc23)c2c[nH]nc2N1 (stereo not shown) [Example 123, 4,7-Dihydro-4-(naphthalen-1-yl)-5-nitro-6-propyl-2H-pyrazolo[3,4-b]pyridine]",226
18,"CCCC1=C([N+](=O)[O-])C(c2cccc3c2OCCC3)c2c[nH]nc2N1 (stereo not shown) [Example 124, 4,7-Dihydro-4-(3,4-dihydro-2H-benzopyran-8-yl)-5-nitro-6-propyl-2H-pyrazolo[3,4-b]pyridine]",234
19,"CC1=C([N+](=O)[O-])C(c2cccc(Cl)c2Cl)c2c[nH]nc2N1 (stereo not shown) [Example 125, 4-(2,3-Dichlorophenyl)-4,7-dihydro-6-methyl-5-nitro-2H-pyrazolo[3,4-b]pyridine]",> 270
20,"CCC1=C([N+](=O)[O-])C(c2cccc(Cl)c2Cl)c2c[nH]nc2N1 (stereo not shown) [Example 126, 4-(2,3-Dichlorophenyl)-6-ethyl-4,7-dihydro-5-nitro-2H-pyrazolo[3,4-b]pyridine]",250
